Measured values taken from US8927500B2, “Peptidomimetic macrocycles” (Aileron Therapeutics, Inc., priority 2012, dated 2015).
Where two headings read alike, the source gives them in different places.

What was measured:
SJSA-1 cells = assay: Cell lysis by peptidomimetic macrocycles (LDH release); assay type: cell-based; settings: 1 h at 37C
Method: On the day of the assay, media was exchanged with RPMI 1% FBS media, 90 uL of media per well.
10 mM stock solutions of the peptidomimetic macrocycles were prepared in 100% DMSO.
The negative control (non-lytic) sample was 0.5% DMSO alone and positive control (lytic) samples include 10 uM Melittin and 1% Triton X-100.
Cell plates were incubated for 1 hour at 37C. After the 1 hour incubation, the morphology of the cells is examined by microscope and then the plates were centrifuged at 1200 rpm for 5 minutes at room temperature. 40 uL of supernatant for each peptidomimetic macrocycle and control sample is transferred to clear assay plates.

MDM2 = MDM2 (Homo sapiens, UniProt Q00987); assay: Competitive fluorescence polarization assay for MDM2; assay type: binding; settings: competitive FP assay, MDM2
Sequence of MDM2 (Q00987 1-125): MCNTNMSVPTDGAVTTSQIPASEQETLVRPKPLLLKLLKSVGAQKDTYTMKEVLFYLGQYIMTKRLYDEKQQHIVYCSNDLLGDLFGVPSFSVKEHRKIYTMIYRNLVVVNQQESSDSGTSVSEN

MDMX = target: T1, MDMX (Homo sapiens, UniProt O15151); assay: Competitive fluorescence polarization assay for MDMX; assay type: binding; settings: competitive FP assay; for IC50: read-out: IC50 (MDMX); for Ki: read-out: Ki (MDMX)
T1 sequence (O15151 1-125): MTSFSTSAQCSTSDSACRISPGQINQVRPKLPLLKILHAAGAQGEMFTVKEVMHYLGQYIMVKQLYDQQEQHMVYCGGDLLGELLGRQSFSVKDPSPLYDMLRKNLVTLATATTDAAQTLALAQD

Caspase 3 = Caspase 3 detection assay in SJSA1 cells; assay type: cell-based; settings: 48 h, Caspase 3 activation over DMSO-treated cells; for caspase 0.3 uM: 0.3 uM peptide; for caspase 3 uM: 3 uM peptide; for caspase 10 uM: 10 uM peptide; for caspase 30 uM: 30 uM peptide; for caspase 1 uM: 1 uM peptide

Compound	6.25 uM % Lysed cells (1 h LDH) (SJSA-1 cells) [%]	25 uM % Lysed cells (1 h LDH) (SJSA-1 cells) [%]	50 uM % Lysed cells (1 h LDH) (SJSA-1 cells) [%]	IC50 (MDM2; read-out: IC50 (MDM2)) [nM]	Ki (MDM2; read-out: Ki (MDM2)) [nM]	IC50 (MDMX) [nM]	Ki (MDMX) [nM]	caspase 0.3 uM (Caspase 3)	caspase 3 uM (Caspase 3)	caspase 10 uM (Caspase 3)	caspase 30 uM (Caspase 3)	IC50 (MDM2; IC50 (MDM2)) [nM]	Ki (MDM2; Ki (MDM2)) [nM]	caspase 1 uM (Caspase 3)
CC(=O)N[C@@H](CC(C)C)C(=O)N[C@H](C(=O)N[C@@H](Cc1ccccc1)C(=O)N[C@]1(C)CCCCCCC=CCCC[C@@](C)(C(=O)N[C@@H](CO)C(=O)NC(C)(C)C(=O)N[C@@H](C)C(=O)N[C@@H](C)C(N)=O)NC(=O)[C@H](CC(C)C)NC(=O)[C@H](CCC(N)=O)NC(=O)[C@H](C)NC(=O)[C@H](Cc2c[nH]c3ccccc23)NC(=O)[C@H](Cc2ccc(O)cc2)NC(=O)[C@H](C)NC1=O)[C@@H](C)O (single isomer, unassigned) [compound 26]	2	−1	0	10 to 100	< 10	100 to 1000	10 to 100	1	1	3	14			
CC[C@H](C)[C@H](NC(=O)[C@H](C)NC(=O)[C@H](C)NC(=O)[C@]1(C)CCCC=CCCCCCC[C@@](C)(NC(=O)[C@H](Cc2ccccc2)NC(=O)[C@@H](NC(=O)[C@H](CC(C)C)NC(C)=O)[C@@H](C)O)C(=O)N[C@@H](C)C(=O)N[C@@H](Cc2ccc(O)cc2)C(=O)N[C@@H](Cc2c[nH]c3ccccc23)C(=O)N[C@@H](C)C(=O)N[C@@H](CCC(N)=O)C(=O)N[C@@H](CC(C)C)C(=O)N1)C(=O)N[C@@H](C)C(N)=O (single isomer, unassigned) [compound 65]	0	0	2	10 to 100	< 10	100 to 1000	10 to 100	1	6	28	34			
CC[C@H](C)[C@H](NC(=O)[C@H](C)NC(=O)[C@H](C)NC(=O)[C@]1(C)CCCC=CCCCCCC[C@@](C)(NC(=O)[C@H](Cc2ccccc2)NC(=O)[C@@H](NC(=O)[C@H](CC(C)C)NC(C)=O)[C@@H](C)O)C(=O)N[C@@H](C)C(=O)N[C@@H](Cc2ccc(O)cc2)C(=O)N[C@@H](Cc2c[nH]c3ccccc23)C(=O)N[C@@H](C)C(=O)N[C@@H](C)C(=O)N[C@@H](CC(C)C)C(=O)N1)C(=O)N[C@@H](C(N)=O)C(C)C (single isomer, unassigned) [compound 77]	−2	1	−1	10 to 100	< 10	100 to 1000	10 to 100	1	2	19	23			
CCCC[C@H](NC(=O)[C@H](C)NC(=O)[C@H](C)NC(=O)[C@]1(C)CCCC=CCCCCCC[C@@](C)(NC(=O)[C@H](Cc2ccccc2)NC(=O)[C@@H](NC(=O)[C@H](CC(C)C)NC(C)=O)[C@@H](C)O)C(=O)N[C@@H](C)C(=O)N[C@@H](Cc2ccc(O)cc2)C(=O)N[C@@H](Cc2c[nH]c3ccccc23)C(=O)N[C@@H](C)C(=O)N[C@@H](C)C(=O)N[C@@H](CC(C)C)C(=O)N1)C(=O)N[C@@H](C(N)=O)C(C)C (single isomer, unassigned) [compound 80]	0	1	5	10 to 100	< 10	100 to 1000	10 to 100	1	2	13	20			
CC(=O)N[C@@H](CC(C)C)C(=O)N[C@H](C(=O)N[C@@H](Cc1ccccc1)C(=O)N[C@]1(C)CCCCCCC=CCCC[C@@](C)(C(=O)N[C@@H](CO)C(=O)N[C@@H](CC(C)C)C(=O)N[C@@H](C)C(N)=O)NC(=O)[C@H](CC(C)C)NC(=O)[C@H](CCC(N)=O)NC(=O)[C@H](C)NC(=O)[C@H](Cc2c[nH]c3ccccc23)NC(=O)[C@H](Cc2ccc(O)cc2)NC(=O)[C@H](C)NC1=O)[C@@H](C)O (single isomer, unassigned) [compound 118]	4	2	4	< 10	< 10	100 to 1000	10 to 100	1	2	18	27			
CC(=O)N[C@@H](CC(C)C)C(=O)N[C@H](C(=O)N[C@@H](Cc1ccccc1)C(=O)N[C@]1(C)CCCCCCC=CCCC[C@@](C)(C(=O)N[C@@H](C)C(=O)N[C@@H](C)C(=O)N[C@@H](C)C(=O)N[C@@H](C)C(=O)N[C@@H](C)C(=O)N[C@@H](C)C(=O)N[C@H](C)C(N)=O)NC(=O)[C@H](CC(C)C)NC(=O)[C@H](CCC(N)=O)NC(=O)[C@H](C)NC(=O)[C@H](Cc2c[nH]c3ccccc23)NC(=O)[C@H](Cc2ccc(O)cc2)NC(=O)[C@H](C)NC1=O)[C@@H](C)O (single isomer, unassigned) [compound 316]	0	0	1					6.5	21	32	32.5	< 10	< 10	10.5
CC(=O)N[C@@H](CC(C)C)C(=O)N[C@H](C(=O)N[C@@H](Cc1ccccc1)C(=O)N[C@]1(C)CCCCCCC=CCCC[C@@](C)(C(=O)N[C@@H](C)C(=O)N[C@@H](C)C(=O)N[C@@H](C)C(=O)N[C@@H](C)C(=O)N[C@@H](C)C(=O)N[C@@H](C)C(=O)N[C@H](C)C(N)=O)NC(=O)[C@H](CC(C)C)NC(=O)[C@H](CCC(N)=O)NC(=O)[C@H](C)NC(=O)[C@H](Cc2c[nH]c3ccccc23)NC(=O)[C@H](Cc2ccc(O)cc2)NC(=O)[C@H](C)NC1=O)[C@@H](C)O (single isomer, unassigned) [compound 317]	0	0	0					3	9	26	35	10 to 100	10 to 100	4
